Measured values from ChEMBL document CHEMBL4396953, “Synthesis and highly potent anti-inflammatory activity of licofelone- and ketorolac-based 1-arylpyrrolizin-3-ones” (2019).

How the values were obtained:
Assay type in all cases: functional
Mus musculus [1] = assay: Antiinflammatory activity in CD1 mouse model of TPA-induced ear edema assessed as ear edema formation at 0.5 mg/ear administered topically after TPA challenge for 30 mins and measured after 6 hrs post administration (reference value: 17.61 to 19.82 mg)
Mus musculus [2] = assay: Antiinflammatory activity in CD1 mouse model of TPA-induced ear edema assessed as inhibition of ear edema at 0.5 mg/ear administered topically after TPA challenge for 30 mins and measured after 6 hrs post administration relative to control
Mus musculus [3] = assay: Antiinflammatory activity in CD1 mouse model of TPA-induced ear edema assessed as inhibition of ear edema at 1 mg/ear administered topically after TPA challenge for 30 mins and measured after 6 hrs post administration relative to control
Mus musculus [4] = assay: Antiinflammatory activity in CD1 mouse model of TPA-induced ear edema assessed as reduction in ear edema formation administered topically after TPA challenge for 30 mins and measured after 6 hrs post administration
Mus musculus [5] = assay: Antiinflammatory activity in CD1 mouse model of TPA-induced ear edema assessed as ear edema formation at 1 mg/ear administered topically after TPA challenge for 30 mins and measured after 6 hrs post administration (reference value: 17.61 to 19.82 mg)
Mus musculus [6] = assay: Antiinflammatory activity in CD1 mouse model of TPA-induced ear edema assessed as ear edema formation at 2 mg/ear administered topically after TPA challenge for 30 mins and measured after 6 hrs post administration (reference value: 17.61 to 19.82 mg)
Mus musculus [7] = assay: Antiinflammatory activity in CD1 mouse model of TPA-induced ear edema assessed as inhibition of ear edema at 2 mg/ear administered topically after TPA challenge for 30 mins and measured after 6 hrs post administration relative to control
J774.A1 = assay: Antiinflammatory activity in mouse J774A.1 cells LPS-induced NO production at 25 ug/ml incubated for 2 hrs followed by LPS-stimulation measured after 24 hrs by Griess assay relative to control

| SMILES | Activity (Mus musculus [1]) | inhibition (INH) (Mus musculus [2]) | inhibition (INH) (Mus musculus [3]) | Activity (Mus musculus [4]) | ED50 (Mus musculus [4]) | Activity (Mus musculus [5]) | Activity (Mus musculus [6]) | inhibition (INH) (Mus musculus [7]) | Activity (J774.A1) |
| --- | --- | --- | --- | --- | --- | --- | --- | --- | --- |
| COc1ccc2c(c1)c(CC(=O)O)c(C)n2C(=O)c1ccc(Cl)cc1 [INDOMETHACIN] | 1.22 to 11.51 mg | 32.12 - 41.44% | 41.97 - 52.37% | Dose-dependent effect | 1.07 to 1.29 mg | 9.01 to 9.44 mg | 6.99 to 10.49 mg | 41.47 - 61.1% | 64.63% |
| COC(=O)C1=C(c2ccc([N+](=O)[O-])cc2)c2cccn2C1=O | 18.13 mg | 8.52% | 24.1% | Dose-dependent effect | 1.86 mg | 15.04 mg | 9.2 mg | 53.43% | – |
| COC(=O)Cn1cccc1C=O | – | – | – | – | – | – | 11.87 mg | 33.73% | – |
| COC(=O)/C(=C\N(C)C)n1cccc1C=O | – | – | – | – | – | – | 14.09 mg | 21.37% | – |
| COC(=O)C1=C(c2ccc(Br)cc2)c2cccn2C1=O | 18.14 mg | 8.46% | 29.73% | Dose-dependent effect | 3.23 mg | 13.93 mg | 11.72 mg | 40.88% | – |
